From patent publication US12187814B1, “Stapled antimicrobial peptide” (KING SAUD UNIVERSITY, priority 2024, dated 2025)
≈ marks a conversion by molar mass, not a printed value. Like-named read-outs stand apart in the source and are kept apart here. Bridge positions count the residues as written; N and C are the ends. Square brackets hold non-standard residues; d marks the D form. Peptide text beside a SMILES is read from it. S5 = C=CCCC[C@](C)(N)C(=O)O

What was measured:
MRSA [1] = assay: microbe, parasite or virus in culture; conditions: Staphylococcus aureus
Staphylococcus aureus [2] = assay: Agar diffusion test (modified Kirby-Bauer), zone of inhibition; format: cell-based; conditions: 30 μl per well, sAMP1 100 μg/ml, Kanamycin 50 μg/ml, 24 hours
Source text: (§1) The agar diffusion method was used to examine the synthesized AMP's antibacterial activity. Pure colonies of Staphylococcus aureus and MRSA were used for antibacterial susceptibility testing according to Clinical Laboratory Standards Institute (CLSI) 2021 guideline) by using a modified Kirby-Bauer disk diffusion technique (Humphries, R. et al, “Overview of Changes to the Clinical and Laboratory Standards Institute Performance Standards for Antimicrobial Susceptibility Testing”, M100, 31st Edition, J. Clin. Microbiol. 2021 Nov. 18; 59 (12): e0021321). In brief, homogeneous colonies were chosen from each microbial strain and grown on Mullar Hilton broth at log phase. 0.5 McFarland standard culture was used to spread on to the Mullar Hilton agar plates. Freshly prepared (30 μl each) of Kanamycin 50 μg/ml and sAMP1 100 μg/ml was poured into 4 mm diameter well, blank well with an equivalent amount of saline served as a […] control. The plates were incubated for 24 hours, and the diameter of the inhibition zone was measured to determine susceptibility or resistance. The full analysis was carried out three times.

Staphylococcus aureus [3] = assay: microbe, parasite or virus in culture
MRSA [4] = assay: Agar diffusion test (modified Kirby-Bauer), zone of inhibition; format: cell-based, Staphylococcus aureus; conditions: 30 μl per well, sAMP1 100 μg/ml, Kanamycin 50 μg/ml, 24 hours
Source text: as §1

[5] = tested on: MCF-7 breast cancer cells
Method: Cytotoxicity & MTT Testing
(§2) Cell line MCF-7 and A549 cells were cultured under CO2 (5%) at 37° C. using Dulbecco's Modified Eagle's Medium (DMEM), accompanied with 1% mixture of “Penicillin-Streptomycin”, 10% Fetal Bovine Serum (FBS) and 1% L-Glutamine.

MRSA [6] = tested on: MRSA

Method for A549 lung cancer cells: Cytotoxicity & MTT Testing
as §2

SMILES	MIC (MRSA [1]) [µg/mL]	zone of inhibition at 50 µg/mL (Staphylococcus aureus [2]; read-out: Zone of Inhibition (mm), Mean ± SD, n = 3) [mm]	MIC (Staphylococcus aureus [3]) [µg/mL]	zone of inhibition at 50 µg/mL (MRSA [4]; Staphylococcus aureus, read-out: Zone of Inhibition (mm), Mean ± SD, n = 3) [mm]	IC50 cell proliferation (MTT) ([5]; 24 h) [µg/mL]	anti-cell proliferation (MTT assay) ([5]; MCF-7 cells)	effect on proliferation ([5]; MCF-7 cells, 25 μg/ml)	Zone of Inhibition (mm), Mean ± SD, n = 3 (Staphylococcus aureus [2]) [mm]	MIC 96-well plate result (growth), replicates 1-3 (MRSA [6]; sAMP1 1.5625 μg/ml (row G))	MIC 96-well plate result (growth), replicates 1-3 (MRSA [6]; sAMP1 3.125 μg/ml (row F))	MIC 96-well plate result (growth), replicates 1-3 (MRSA [6]; sAMP1 6.25 μg/ml (row E))	MIC 96-well plate result (growth), replicates 1-3 (MRSA [6]; sAMP1 12.5 μg/ml (row D))	IC50 cell proliferation (MTT) (A549 lung cancer cells; 24 h) [µg/mL]	anti-cell proliferation (MTT assay) (A549 lung cancer cells; A549 cells)	effect on proliferation (A549 lung cancer cells; A549 cells, 25 μg/ml)	Zone of Inhibition (mm), Mean ± SD, n = 3 (MRSA [4]) [mm]
NC[C@H]1O[C@H](O[C@H]2[C@H](O)[C@@H](O[C@H]3O[C@H](CO)[C@@H](O)[C@H](N)[C@H]3O)[C@H](N)C[C@@H]2N)[C@H](O)[C@@H](O)[C@@H]1O [Kanamycin, reference compound]	3.12 (≈ 6.45 µM)	19.1 ± 1.38	3.12 (≈ 6.45 µM)	21.6 ± 2.17	–	–	–	–	–	–	–	–	–	–	–	–
CC[C@H](C)[C@H](NC(=O)[C@H](CCCNC(=N)N)NC(=O)[C@H](CCCCN)NC(=O)[C@]1(C)CCCC=CCCC[C@](C)(NC(=O)[C@H](CCCCN)NC(=O)[C@H](CCC(=O)O)NC(=O)[C@H](CCCCN)NC(=O)[C@H](CO)NC(=O)[C@H](CCCCN)NC(=O)[C@H](CCCNC(=N)N)NC(=O)[C@H](Cc2ccccc2)NC(=O)[C@@H](N)Cc2ccccc2)C(=O)NCC(=O)N[C@@H](CCCCN)C(=O)N[C@@H](CCC(=O)O)C(=O)N1)C(=O)N[C@H](C(N)=O)C(C)C [sAMP1, FFRKSKEK-S5-GKE-S5-KRIV] (H-FFRKSKEK[S5]GKE[S5]KRIV-NH2; staple 9-13; N-terminus assumed)	–	–	–	–	35.82 (≈ 16.8 µM)	dose-dependent anti-cell proliferation	significantly reduced the proliferation	22.52±2.15	Growth	Growth	Growth	Growth	54.22 (≈ 25.5 µM)	dose-dependent anti-cell proliferation	significantly reduced the proliferation	25.31±1.53
